Results published in PMC9414551 (Pharmaceuticals, 2022).

Experiments:
NMDAR = target: NMDAR; set-up: method as in Eurofins Panlabs Discovery Services Taiwan; settings: assay parameter of the contract laboratory; ref Eurofins Panlabs Discovery Services Taiwan; read-out: Kd of the radioligand; cited from earlier work
NR1-2A NMDAR [1] = target: T1, NR1-2A NMDAR (Homo sapiens, UniProt Q05586+Q12879); assay: Whole-cell automated patch-clamp (QPatch) in 1 mM Mg2+; type: cell-based; set-up: host or cells: CHO (CHO-hNR1-h2A), tetracycline-induced expression; settings: 1 mM MgCl2, 10 μM L-glutamate, 10 μM glycine
Procedure: (§1) Data were obtained in automated patch-clamp platform. […] Statistical results of one-way analysis of variance (ANOVA) followed by Tukey’s multiple comparisons test also reported p < 0.05 (*), p < 0.01 (**), p < 0.001 (***), and p < 0.0001 (****). Glu is glutamate.
(§2) For QPatch experiments, cells were grown in T-flasks first at 37 °C, 5% CO2 for 3 to 4 h, then at 30 °C, 5% CO2 for 18 to 24 h in DMEM/F12 medium with added 500 μM ketamine and 10 μg/mL tetracycline (except for NR1-2B-CHO cells) without additional antibiotics. Cells were manually detached from the culture dish and automatically dispensed in QPatch wells with extracellular solution in the presence of 1 mM Mg^2+ and 500 μM ketamine.
(§3) Holding potential was −80 mV, and voltage protocol included a depolarizing 2-s step pulse to +60 mV to check the quality of the seal and cell NMDAR expression level, followed by a 2-s ramp-up to holding potential.

NR1-2C NMDAR [2] = target: T2, NR1-2C NMDAR (Homo sapiens, UniProt Q05586+Q14957); assay: as above; type: cell-based; set-up: host or cells: CHO (CHO-hN1-h2C), tetracycline-induced expression; settings: 1 mM MgCl2, 10 μM L-glutamate, 10 μM glycine
Procedure: as §1, §2, §3

NR1-2D NMDAR [3] = target: T3, NR1-2D NMDAR (Homo sapiens, UniProt O15399+Q05586); assay: as above; type: cell-based; set-up: host or cells: CHO (CHO-hN1-h2D), tetracycline-induced expression; settings: 1 mM MgCl2, 10 μM L-glutamate, 10 μM glycine
Procedure: as §1, §2, §3

NR1-2B NMDAR [4] = target: T4, NR1-2B NMDAR (Homo sapiens, UniProt Q05586+Q13224); assay: as above; type: cell-based; set-up: host or cells: CHO (CHO-hNR1-h2B), constitutive expression; settings: 1 mM MgCl2, 10 μM L-glutamate, 10 μM glycine
Procedure: as §1, §2, §3

NR1-2C NMDAR [5] = target: T2, NR1-2C NMDAR; assay: cell-based; type: cell-based; set-up: host or cells: CHO (CHO-hN1-h2C), tetracycline-induced expression
NR1-2D NMDAR [6] = target: T3, NR1-2D NMDAR; assay: cell-based; type: cell-based; set-up: host or cells: CHO (CHO-hN1-h2D), tetracycline-induced expression
NR1-2B NMDAR [7] = target: T4, NR1-2B NMDAR; assay: cell-based; type: cell-based; set-up: host or cells: CHO (CHO-hNR1-h2B), constitutive expression
NR1-2A NMDAR [8] = target: T1, NR1-2A NMDAR; assay: cell-based; type: cell-based; set-up: host or cells: CHO (CHO-hNR1-h2A), tetracycline-induced expression

T3 sequence (O15399 28-1336, other chains not shown): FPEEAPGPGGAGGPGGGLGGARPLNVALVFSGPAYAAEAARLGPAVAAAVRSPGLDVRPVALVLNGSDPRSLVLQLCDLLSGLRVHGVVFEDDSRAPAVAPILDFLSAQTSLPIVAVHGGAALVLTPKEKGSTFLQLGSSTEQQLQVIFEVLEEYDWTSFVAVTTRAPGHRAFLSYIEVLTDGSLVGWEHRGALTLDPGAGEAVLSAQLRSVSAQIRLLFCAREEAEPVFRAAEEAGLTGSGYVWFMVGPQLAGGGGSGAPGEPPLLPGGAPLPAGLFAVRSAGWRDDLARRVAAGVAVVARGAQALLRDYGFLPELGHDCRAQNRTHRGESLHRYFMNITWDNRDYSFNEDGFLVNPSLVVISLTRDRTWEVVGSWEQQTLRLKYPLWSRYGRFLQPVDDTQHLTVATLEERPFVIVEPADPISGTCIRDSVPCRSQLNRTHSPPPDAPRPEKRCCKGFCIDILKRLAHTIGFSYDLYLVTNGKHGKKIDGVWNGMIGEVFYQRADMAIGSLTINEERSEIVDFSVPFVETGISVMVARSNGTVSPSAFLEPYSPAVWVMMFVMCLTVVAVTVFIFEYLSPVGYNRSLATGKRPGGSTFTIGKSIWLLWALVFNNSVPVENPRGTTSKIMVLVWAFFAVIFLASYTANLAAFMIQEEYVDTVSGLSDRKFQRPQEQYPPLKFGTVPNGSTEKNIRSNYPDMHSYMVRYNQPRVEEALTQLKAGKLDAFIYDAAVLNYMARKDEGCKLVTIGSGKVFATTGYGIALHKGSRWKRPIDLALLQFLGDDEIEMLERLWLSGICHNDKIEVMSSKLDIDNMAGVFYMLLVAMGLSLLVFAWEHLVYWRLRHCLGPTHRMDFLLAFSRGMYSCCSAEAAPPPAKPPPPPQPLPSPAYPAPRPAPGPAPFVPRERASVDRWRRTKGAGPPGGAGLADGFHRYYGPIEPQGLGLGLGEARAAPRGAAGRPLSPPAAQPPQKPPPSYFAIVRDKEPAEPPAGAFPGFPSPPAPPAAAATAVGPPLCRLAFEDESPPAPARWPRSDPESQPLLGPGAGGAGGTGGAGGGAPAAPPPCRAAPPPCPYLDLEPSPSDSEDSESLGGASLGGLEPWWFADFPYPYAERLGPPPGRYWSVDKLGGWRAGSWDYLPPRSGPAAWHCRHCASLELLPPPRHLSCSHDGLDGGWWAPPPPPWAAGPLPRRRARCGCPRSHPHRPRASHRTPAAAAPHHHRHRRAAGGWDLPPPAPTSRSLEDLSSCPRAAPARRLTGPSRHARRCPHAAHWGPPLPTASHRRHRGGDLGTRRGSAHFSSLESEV
T4 sequence (Q13224 27-1484, other chains not shown): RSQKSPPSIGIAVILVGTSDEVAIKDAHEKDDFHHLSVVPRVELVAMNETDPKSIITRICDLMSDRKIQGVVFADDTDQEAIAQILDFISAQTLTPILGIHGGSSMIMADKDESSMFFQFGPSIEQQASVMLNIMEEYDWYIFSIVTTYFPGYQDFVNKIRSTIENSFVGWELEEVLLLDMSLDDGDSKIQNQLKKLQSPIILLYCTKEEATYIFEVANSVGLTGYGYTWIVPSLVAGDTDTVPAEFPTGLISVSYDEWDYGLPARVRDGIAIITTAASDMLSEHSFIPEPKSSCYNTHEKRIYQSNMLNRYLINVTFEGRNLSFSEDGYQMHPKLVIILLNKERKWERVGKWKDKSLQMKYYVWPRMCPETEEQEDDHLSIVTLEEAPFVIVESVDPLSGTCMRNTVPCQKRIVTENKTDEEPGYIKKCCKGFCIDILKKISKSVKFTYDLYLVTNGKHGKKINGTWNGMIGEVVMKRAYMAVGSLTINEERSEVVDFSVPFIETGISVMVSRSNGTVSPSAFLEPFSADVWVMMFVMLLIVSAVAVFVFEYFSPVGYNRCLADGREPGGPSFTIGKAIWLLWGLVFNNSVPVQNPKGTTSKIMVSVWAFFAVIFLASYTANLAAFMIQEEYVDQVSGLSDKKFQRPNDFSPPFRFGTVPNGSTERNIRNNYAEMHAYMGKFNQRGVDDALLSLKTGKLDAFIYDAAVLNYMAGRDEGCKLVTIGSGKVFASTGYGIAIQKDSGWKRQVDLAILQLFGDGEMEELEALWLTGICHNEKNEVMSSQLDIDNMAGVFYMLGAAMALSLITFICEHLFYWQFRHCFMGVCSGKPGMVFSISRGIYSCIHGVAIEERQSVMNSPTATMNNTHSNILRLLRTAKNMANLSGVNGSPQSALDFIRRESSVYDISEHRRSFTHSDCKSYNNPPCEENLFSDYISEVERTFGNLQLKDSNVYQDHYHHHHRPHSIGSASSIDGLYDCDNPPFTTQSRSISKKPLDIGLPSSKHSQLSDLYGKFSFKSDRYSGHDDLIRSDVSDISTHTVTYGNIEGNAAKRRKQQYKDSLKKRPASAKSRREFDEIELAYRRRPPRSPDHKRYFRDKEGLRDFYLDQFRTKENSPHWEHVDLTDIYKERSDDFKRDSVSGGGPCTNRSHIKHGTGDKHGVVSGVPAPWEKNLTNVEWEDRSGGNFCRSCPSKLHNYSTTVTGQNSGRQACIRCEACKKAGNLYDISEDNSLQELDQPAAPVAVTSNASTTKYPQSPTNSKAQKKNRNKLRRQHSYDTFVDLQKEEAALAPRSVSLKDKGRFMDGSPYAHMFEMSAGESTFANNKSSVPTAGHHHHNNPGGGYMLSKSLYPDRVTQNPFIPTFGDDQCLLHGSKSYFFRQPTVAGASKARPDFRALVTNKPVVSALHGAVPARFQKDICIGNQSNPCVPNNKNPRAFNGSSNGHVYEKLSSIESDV
T1 sequence (Q12879 23-1464, other chains not shown): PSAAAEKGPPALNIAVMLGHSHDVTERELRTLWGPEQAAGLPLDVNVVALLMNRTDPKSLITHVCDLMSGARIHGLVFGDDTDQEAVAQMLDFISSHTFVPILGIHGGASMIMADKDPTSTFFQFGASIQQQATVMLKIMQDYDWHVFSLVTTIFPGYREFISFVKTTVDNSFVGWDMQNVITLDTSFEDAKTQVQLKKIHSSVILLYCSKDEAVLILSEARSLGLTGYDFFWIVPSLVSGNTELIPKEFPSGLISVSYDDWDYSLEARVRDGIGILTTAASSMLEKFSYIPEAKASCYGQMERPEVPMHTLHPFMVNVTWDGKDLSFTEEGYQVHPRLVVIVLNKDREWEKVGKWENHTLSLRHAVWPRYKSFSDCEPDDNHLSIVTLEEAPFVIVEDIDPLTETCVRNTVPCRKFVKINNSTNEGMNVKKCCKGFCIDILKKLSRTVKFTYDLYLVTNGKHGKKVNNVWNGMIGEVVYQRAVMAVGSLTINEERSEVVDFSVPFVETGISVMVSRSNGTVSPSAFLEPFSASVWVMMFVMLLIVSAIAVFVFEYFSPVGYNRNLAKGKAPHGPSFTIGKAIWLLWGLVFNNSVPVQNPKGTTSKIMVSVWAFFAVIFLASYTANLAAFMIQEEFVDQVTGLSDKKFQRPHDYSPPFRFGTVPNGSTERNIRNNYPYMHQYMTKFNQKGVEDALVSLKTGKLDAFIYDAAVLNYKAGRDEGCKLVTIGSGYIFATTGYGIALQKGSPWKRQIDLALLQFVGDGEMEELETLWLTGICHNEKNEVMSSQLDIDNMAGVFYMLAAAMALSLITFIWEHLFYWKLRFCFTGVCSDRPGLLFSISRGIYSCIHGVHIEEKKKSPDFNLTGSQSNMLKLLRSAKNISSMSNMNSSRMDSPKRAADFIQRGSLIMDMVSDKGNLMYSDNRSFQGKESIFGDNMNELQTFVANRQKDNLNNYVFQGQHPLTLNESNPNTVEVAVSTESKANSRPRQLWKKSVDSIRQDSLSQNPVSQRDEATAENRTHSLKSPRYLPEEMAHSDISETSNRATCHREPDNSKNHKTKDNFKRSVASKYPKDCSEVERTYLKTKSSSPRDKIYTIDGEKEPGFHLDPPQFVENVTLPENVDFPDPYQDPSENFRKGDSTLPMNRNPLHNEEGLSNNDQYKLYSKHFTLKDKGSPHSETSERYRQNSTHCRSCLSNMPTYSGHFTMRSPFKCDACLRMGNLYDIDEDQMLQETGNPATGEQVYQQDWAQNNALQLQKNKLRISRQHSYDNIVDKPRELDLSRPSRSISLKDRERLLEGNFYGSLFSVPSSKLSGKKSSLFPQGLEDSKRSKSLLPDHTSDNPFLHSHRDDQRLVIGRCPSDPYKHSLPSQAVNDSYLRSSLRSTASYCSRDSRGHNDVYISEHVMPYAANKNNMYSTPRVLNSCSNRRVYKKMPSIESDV

## c1csc(C2(N3CCCCC3)CCCCC2)c1 [[^3H]TCP]
NMDAR
  Kd: 8.4 nM

## [Cl-].[Cl-].[Mg+2] [MgCl2]
NR1-2A NMDAR [1]
  current at −60 mV normalized to −30 mV current (100%): 24 ± 2.4%
NR1-2C NMDAR [2]
  current at −60 mV normalized to −30 mV current (100%): 64 ± 5.6%
NR1-2D NMDAR [3]
  current at −60 mV normalized to −30 mV current (100%): 55 ± 1.8%
NR1-2B NMDAR [4]
  current at −60 mV normalized to −30 mV current (100%): 26 ± 1.8%

## N[C@@H](CCC(=O)O)C(=O)O [L-glutamate]
NR1-2C NMDAR [5]
  L-glutamate Max. (maximal asymptote), alone: 106%
NR1-2D NMDAR [6]
  L-glutamate Max. (maximal asymptote), alone: 105%
NR1-2B NMDAR [7]
  L-glutamate Max. (maximal asymptote), alone: 111%
NR1-2A NMDAR [8]
  L-glutamate Max. (maximal asymptote), alone: 106%
